“And” between values parts separate entries of the source, which are not always exact repeats. Equal entries are not always repeated.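 Compound exposure: 48 hours, 5 concentrations, 96-well plates. GI50 is the concentration that inhibits growth by half. Definition used: TGI = concentration required for complete inhibition of growth.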
Experiments:
Assay in all cases: NCI anticancer screen, dose series, 48 h
M14 melanoma = test system: M14 melanoma
T-47D breast = test system: T-47D breast
TK-10 renal = test system: TK-10 renal
NCI/ADR-RES ovarian = test system: NCI/ADR-RES ovarian
HOP-62 NSCLC = test system: HOP-62 NSCLC
K-562 leukemia = test system: K-562 leukemia
RXF 393 renal = test system: RXF 393 renal
OVCAR-3 ovarian = test system: OVCAR-3 ovarian
OVCAR-4 ovarian = test system: OVCAR-4 ovarian
SK-MEL-5 melanoma = test system: SK-MEL-5 melanoma

Row | Compound | GI50 (M14 melanoma) [µM] | TGI (M14 melanoma) | GI50 (T-47D breast) [µM] | TGI (T-47D breast) | GI50 (TK-10 renal) [µM] | TGI (TK-10 renal) | GI50 (NCI/ADR-RES ovarian) [µM] | TGI (NCI/ADR-RES ovarian) | GI50 (HOP-62 NSCLC) [µM] | TGI (HOP-62 NSCLC) | GI50 (K-562 leukemia) [µM] | TGI (K-562 leukemia) | GI50 (RXF 393 renal) [µM] | TGI (RXF 393 renal) [µM] | GI50 (OVCAR-3 ovarian) [µM] | TGI (OVCAR-3 ovarian) | GI50 (OVCAR-4 ovarian) [µM] | TGI (OVCAR-4 ovarian) | GI50 (SK-MEL-5 melanoma) [µM] | TGI (SK-MEL-5 melanoma)
1 | CN(C)CCN1C(=O)c2c(c3c4ccccc4n4c3c3c2c2ccccc2n3C2CC(O)C(O)C4(C)O2)C1=O (stereo not given) | 1.71 | 7.47 µM | 2.39 | 12.1 µM | 1.32 | 13.5 µM | 8.2 | 23.3 µM | 1.24 | 6.73 µM | 0.84 | 7.54 µM | 1.89 | 8.27 | 2.27 | 11.1 µM | 2.69 | 13.6 µM | 1.58 | 7.14 µM
2 | O=C1OCC2=C1C(c1cccc(Cl)c1)c1cc3c(cc1N2CCO)OCCO3 (stereo not given) | 0.0493 | 1.57 µM | 0.0677 | > 100 µM | 0.12 | 37.3 µM | 0.0631 | 0.373 µM | 0.0787 | 40.5 µM | 0.0481 | > 45.7 µM | 0.0294 | 0.174 | 0.0251 | 0.0618 µM | 0.118 | > 100 µM | 0.036 | 0.507 µM
3 | COc1ccc(C/C(C)=C(/c2ccc(OCCN3CCCCC3)cc2)c2ccc(OC(=O)NCc3ccccc3)cc2)cc1 | 0.344 | 0.731 µM | 0.303 | 0.746 µM | 0.405 | 0.781 µM | 0.443 | 0.893 µM | 0.419 | 0.825 µM | 0.301 | 1.23 µM | 0.435 | 0.876 | 0.413 | 0.762 µM | 0.393 | 0.764 µM | 0.421 | 0.774 µM
4 | COc1cccc(N2C(=O)C3c4[nH]c5ccccc5c4C4CCCC4C3C2=O)c1 (stereo not given) | – | > 10 µM | – | > 10 µM | – | > 10 µM | – | > 10 µM | – | 6.25 µM | – | > 10 µM | – | > 10 | – | > 10 µM | – | 4.76 µM | – | > 10 µM
5 | COc1cccc(-c2c[nH]c3c(N/N=C/c4ccncc4)ncnc23)c1 | 3.19 | 9.54 µM | 3.07 | > 15.5 µM | 4.15 | 20.6 µM | 4.54 | > 19.3 µM | 3.74 | > 15.3 µM | 1 | > 25 µM | 0.501 | 2.16 | 1.12 | 6.26 µM | 2.65 | 11.1 µM | 0.809 | 3.91 µM
6 | C[C@@H]1[C@H](C)N1CC(O)Cn1ccnc1[N+](=O)[O-] (stereo not given in full) | – | > 100 µM | – | > 100 µM | – | > 100 µM | – | > 100 µM | – | > 100 µM | – | > 100 µM | – | > 100 | – | > 100 µM | – | > 100 µM | – | > 100 µM
7 | C[C@H]1CC[C@@]2(NC1)O[C@H]1C[C@H]3[C@@H]4CC[C@H]5C[C@@H](O)CC[C@]5(C)[C@H]4CC[C@]3(C)[C@H]1[C@@H]2C | 18.1 | 50 µM and > 100 µM | 12.3 | 50 µM and > 100 µM | 11.1 | 25.3 µM and > 100 µM | 8.71 | 22.4 µM and > 100 µM | 9.72 | 19.4 µM and > 100 µM | 6.87 | 23 µM and > 100 µM | > 50 | > 50 | 9.61 | 22.2 µM and > 100 µM | 17.3 | 50 µM and > 100 µM | 11.7 | 23.7 µM and > 100 µM
8 | O=c1cnn(C2OC(CO)C(O)C2O)c(=S)[nH]1 (stereo not given) | – | > 100 µM | – | > 100 µM | – | > 100 µM | – | > 100 µM | – | > 100 µM | – | > 44.6 µM | – | > 100 | – | > 100 µM | – | > 100 µM | – | > 100 µM
9 | CN1CCN(C(=O)C(C)(C)c2ccc(C(=O)Nc3cn4cc(-c5ccncc5)ccc4n3)cc2)CC1 | 0.389 | 22.8 µM | 0.201 | > 100 µM | 0.484 | > 100 µM | 0.917 | > 100 µM | 0.307 | > 53 µM | 0.194 | > 100 µM | 0.316 | 1.01 | 0.126 | 0.431 µM | 0.35 | > 100 µM | 0.188 | 0.382 µM
10 | NC(=O)N/N=C1/CCC(O)CC1CC(=O)O (stereo not given) | – | > 100 µM | – | > 100 µM | – | > 100 µM | – | > 100 µM | – | > 100 µM | – | > 100 µM | – | > 100 | – | > 100 µM | – | > 100 µM | – | > 100 µM

From PubChem BioAssay (NCI)
